Measurements taken from patent publication US20020045254A1, “Established cells” (priority 1998, published 2002).

Key:
[1] = test system: TR-CSFB3 cells; assay: Inhibition of L-proline uptake of TR-CSFB3 cells by Na+-free (choline) buffer and ouabain; format: cell-based, rat; conditions: 30 minutes
Method: The L-proline uptake into the isolated choroid plexus is dependent on Na^+. […] However, because the experiment must be carried out under Na^+-free conditions, all Na^+ in the uptake buffer (1) was replaced with coline. […] Both reactions were carried out for 30 minutes. It was confirmed that L-proline uptake was inhibited as much as 98% under Na^+-free conditions. It was confirmed that 56% of L-proline uptake was inhibited by 1 mM ouabain. As a result, the L-proline uptake of TR-CSFB3 cells was confirmed to be Na^+-dependent.

[2] = biological target: T1, GLUT-1 transporter (Rattus norvegicus, UniProt P11167); assay: 3-OMG uptake by TR-iBRB2 cells (glucose transport capability); format: in vitro ADME
T1 construct: endogenous in cells; host or cells: TR-iBRB2, immortalized rat retinal capillary endothelial cells (tsA58 SV40 large T transgenic rat)
T1 sequence (P11167 1-492): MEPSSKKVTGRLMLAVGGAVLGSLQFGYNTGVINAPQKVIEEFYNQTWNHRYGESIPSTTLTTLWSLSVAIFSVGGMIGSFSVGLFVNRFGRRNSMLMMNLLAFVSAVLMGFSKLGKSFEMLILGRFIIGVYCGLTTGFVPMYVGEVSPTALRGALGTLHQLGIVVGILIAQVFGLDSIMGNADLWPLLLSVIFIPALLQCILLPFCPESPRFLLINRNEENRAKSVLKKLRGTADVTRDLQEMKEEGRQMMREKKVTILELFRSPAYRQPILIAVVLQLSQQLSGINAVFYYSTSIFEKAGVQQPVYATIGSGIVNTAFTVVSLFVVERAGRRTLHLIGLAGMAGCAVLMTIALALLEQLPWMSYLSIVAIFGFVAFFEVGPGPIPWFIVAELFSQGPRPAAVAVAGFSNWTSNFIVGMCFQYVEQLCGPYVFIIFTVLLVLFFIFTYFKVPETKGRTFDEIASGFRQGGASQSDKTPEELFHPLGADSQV
Method: The 3-OMG uptake was determined according to the following procedure. After removing medium by aspiration, 0.2 mL of an uptake buffer containing 232 kBq/mL of [^3H]3-OMG heated to 37° C. was added. […] After 10 seconds, the uptake buffer (1) was removed and the residue was washed with the uptake buffer (1) at 4° C. The same procedure was repeated except for changing the period of time before removing the uptake buffer (1) to 20 seconds, 30 seconds, or one minutes. The cells were solubilized in 1 mL of PBS containing 1% Triton X-100 and the radioactivity was measured using a liquid scintillation counter to confirm the linearity of the 3-OMG uptake capability. As a result, an uptake time of 20 seconds was set.
Next, the substrate concentration dependency of the 3-OMG uptake capability was examined. After washing the cells with the uptake buffer (1) heated to 37° C., 0.2 mL of the uptake buffer (1) containing 462 kBq/well of [^3H]3-OMG was added. Solutions containing 3-OMG at different concentrations were prepared by adding non-labeled 3-OMG to the uptake buffer (1) to make final concentrations of 0, 0.5, 1, 5, 10, 20, 30, and 50 mM. […] Next, the cells were solubilized overnight in 1 mL of PBS containing 1% Triton X-100 and the radioactivity was measured using a liquid scintillation counter.

[3] = biological target: T2, GLUT-1 transport carrier (Rattus norvegicus, UniProt P11167); assay: 3-OMG uptake by TR-BBB cell lines (glucose transport capability); format: in vitro ADME
T2 construct: endogenous in cells; host or cells: TR-BBB1, TR-BBB5, TR-BBB6, TR-BBB11, TR-BBB13, immortalized rat brain capillary endothelial cells
T2 sequence (P11167 1-492): T1 sequence (P11167 1-492)

[4] = test system: TR-CSFB3 cells
Method: The concentration dependency of the resulting cells on the L-proline transport was examined to determine the L-proline transport capability.
After the uptake reaction for 30 minutes and washing three times with PBS, 1 mL of PBS containing 1% Triton X-100 was added and the mixture was allowed to stand overnight to solubilize the cells. The radioactivity was measured using a liquid scintillation counter (LS-6500 made by Beckmann Co.).

[5] = test system: rabbit choroid plexus; conditions: read-out: Km value from rabbit choroid plexus; L-proline, Coben L. A. et al. (1972); cited from earlier work

C[C@@H]1O[C@@H](O[C@H]2C[C@@H](O)[C@]3(CO)[C@H]4[C@H](O)C[C@]5(C)[C@@H](C6=CC(=O)OC6)CC[C@]5(O)[C@@H]4CC[C@]3(O)C2)[C@H](O)[C@H](O)[C@H]1O [ouabain]
inhibition at 1000 µM ([1]; Rattus norvegicus, 0.5 h, 1 mM ouabain): 56%

3-o-methyl-D-glucose [3-OMG]
maximum velocity constant (Vmax) of 3-OMG uptake ([2]; 20 seconds uptake, 37° C., 0-50 mM 3-OMG): 45 nmol/min/mg protein | Km ([2]; read-out: Michaelis constant (Km) of 3-OMG uptake, 20 seconds uptake, 37° C., 0-50 mM 3-OMG): 5600 µM | Initial uptake rate ([3]; TR-BBB1 cells): 8.12 ± 0.62 μ1/min/mg protein | Initial uptake rate ([3]; TR-BBB5 cells): 10.1 ± 1.32 μ1/min/mg protein | Initial uptake rate ([3]; TR-BBB6 cells): 7.07 ± 0.92 μ1/min/mg protein | Initial uptake rate ([3]; TR-BBB11 cells): 10.2 ± 0.62 μ1/min/mg protein | Initial uptake rate ([3]; TR-BBB13 cells): 8.96 ± 0.50 μ1/min/mg protein | initial uptake rate of [3H]3-OMG ([3]; span over TR-BBB1, TR-BBB5, TR-BBB6, TR-BBB11 and TR-BBB13 cells): 7.07-10.2 μl/min/mg protein

O=C(O)[C@@H]1CCCN1 [L-proline]
inhibition of L-proline uptake under Na+-free conditions ([1]; all Na+ in uptake buffer replaced with choline): 98% | Vmax of L-proline uptake ([4]; 30 minutes uptake, 0.005-20 mM L-proline): 2.4 nmol/min/mg protein | Km ([4]; read-out: Km of L-proline uptake, 30 minutes uptake, 0.005-20 mM L-proline): 1500 µM | Km [5]: 1100 µM
